For 35 molecules, Activity and Ratio results are on record in ChEMBL document CHEMBL1944620, “Discovery of non-oxime reactivators using an in silico pharmacophore model of oxime reactivators of OP-inhibited acetylcholinesterase” (Eur J Med Chem, 2012).

In assay [1] the test system is Anguilliformes. Kind of assay: Reactivation of DFP-inhibited eel AChE assessed as reactivation efficacy by spectrophotometry.
Assay [2] deals with Anguilliformes. Kind of assay: Reactivation of DFP-inhibited eel AChE by spectrophotometry relative to 2-PAM.

With `CC(CO)(CO)NCC(O)COc1ccc(OC(F)(F)F)cc1` (centres undefined), the Activity with Anguilliformes [1] stood at 73 mmol⁻¹ min⁻¹. The same measure, in the same setting: in the case of `S=C(NC1CCCCCCC1)N1CCCN(c2nc3ccc(Cl)cc3s2)CC1` it was 26.7 mmol⁻¹ min⁻¹; in that of `COc1cc(C(=O)Oc2c(Br)cc(Br)cc2/C=N/NC(=O)C(O)(c2ccccc2)c2ccccc2)cc(OC)c1OC`, 39.9 mmol⁻¹ min⁻¹. On the same count and under the same terms, then `OC1CCN(CC(O)COc2ccc(Cl)c(Cl)c2)CC1` (centres undefined), with 34.3 mmol⁻¹ min⁻¹. As for `FC(F)(F)c1ccnc(NCCNC(=S)NCc2ccco2)n1`, the Activity in the assay on Anguilliformes [1] turned out to be 11 mmol⁻¹ min⁻¹. Moreover, the Ratio with Anguilliformes [2] was less than 10.

For the molecule `COc1ccc(CCNCC(O)Cn2ccc3ccccc32)cc1OC` (centres undefined), in the assay with Anguilliformes [1], the Activity was found to be 79.6 mmol⁻¹ min⁻¹.

In the case of `OC(CNCCNc1ccc(C(F)(F)F)cn1)CSc1ccc(F)cc1` (centres undefined), the Activity in the assay with Anguilliformes [1] turned out to be 71.6 mmol⁻¹ min⁻¹. Consider `COc1cc(/C=N/NC(=O)c2cnc3ccccc3c2)cc(Br)c1OCc1ccccc1Cl`, for which the Activity with Anguilliformes [1] came to 13 mmol⁻¹ min⁻¹. For the same molecule, the Ratio with Anguilliformes [2] was less than 10. `COc1cccc(C(=O)Oc2c(Br)cc(Br)cc2/C=N/NC(=O)CNC(=O)c2ccc(OC)c(OC)c2)c1`: the Activity with Anguilliformes [1] amounted to 56.2 mmol⁻¹ min⁻¹.

Take `COc1cc(/C=N/NC(=O)c2ccccc2NC(C)=O)cc(Br)c1OCc1ccccc1Cl`: in the assay with Anguilliformes [1], the Activity was determined as 33.1 mmol⁻¹ min⁻¹.

With `Cc1nc(-c2ccccn2)nc(N2CCN(CCO)CC2)c1Cl`, the Activity in the assay on Anguilliformes [1] worked out at 13.9 mmol⁻¹ min⁻¹. Moreover, the Ratio with Anguilliformes [2] is less than 10. For the molecule `CC(C)(C)OC(=O)N1CCCN(C(=S)Nc2ccccc2N2CCOCC2)CC1`, the Activity in the assay with Anguilliformes [1] worked out at 65.9 mmol⁻¹ min⁻¹. As to `O=C1CCC(=O)N1c1ccc(S(=O)(=O)N2CCN(c3nccc(C(F)(F)F)n3)CC2)cc1`, the Activity with Anguilliformes [1] was determined as 48.4 mmol⁻¹ min⁻¹. As for `OC(CNCCNc1nccc(C(F)(F)F)n1)COc1cccc(C(F)(F)F)c1` (centres undefined), the Activity in the assay with Anguilliformes [1] came out at 38 mmol⁻¹ min⁻¹. Turning to `O=C(Nc1cc(F)cc(F)c1)N1CCCN(c2ncc(C(F)(F)F)cc2Cl)CC1`, the Activity with Anguilliformes [1] turned out to be 80.7 mmol⁻¹ min⁻¹. Take `OC(CNCCNc1ccc(C(F)(F)F)cn1)COc1ccccc1` (centres undefined): in the assay on Anguilliformes [1], the Activity amounted to 20.6 mmol⁻¹ min⁻¹. Still for that read-out and setting: then `OC(COc1ccc(Cl)c(Cl)c1)CN1CCN(c2nc3ccc(Cl)cc3s2)CC1` (centres undefined), with 25.1 mmol⁻¹ min⁻¹. Consider `CCOC(=O)c1cc(C#N)c(C)nc1N1CCN(S(=O)(=O)c2ccccc2)CC1`, for which, in the assay with Anguilliformes [1], the Activity came to 24.7 mmol⁻¹ min⁻¹. With `OC(CNCCNc1nccc(C(F)(F)F)n1)COc1ccc(Cl)c(Cl)c1` (centres undefined), in the assay with Anguilliformes [1], the Activity was 75.2 mmol⁻¹ min⁻¹. For the molecule `C[n+]1ccccc1C=NO`, in the assay with Anguilliformes [1], the Activity is 2.61 mmol⁻¹ min⁻¹. Take `OC(CNCCNc1nccc(C(F)(F)F)n1)Cn1ccc2ccccc21` (centres undefined): the Activity with Anguilliformes [1] came to 57 mmol⁻¹ min⁻¹. The same measure, in the same setting: then `Cc1ccc(S(=O)(=O)NC(=O)NCCCNC(=O)OC(C)(C)C)cc1`, with 76 mmol⁻¹ min⁻¹. On the same count and under the same terms, then `FC(F)(F)c1ccnc(Oc2ccc(/C=N/NC(=S)Nc3cc(Cl)ccc3Cl)cc2)n1`, with 53.6 mmol⁻¹ min⁻¹. Take `OC(CNCCNc1nccc(C(F)(F)F)n1)CSc1ccccc1` (centres undefined): the Activity in the assay on Anguilliformes [1] was determined as 91.1 mmol⁻¹ min⁻¹.

Take `COc1cc(/C=N/NC(=O)c2ccc(N)cc2)cc(Br)c1OCc1ccccc1Cl`: the Activity with Anguilliformes [1] turned out to be 214 mmol⁻¹ min⁻¹. As for `CCOC(=O)c1cc(-c2nc(C(=O)NN)cs2)c(C)nc1C(F)(F)F`, the Activity in the assay with Anguilliformes [1] turned out to be 156 mmol⁻¹ min⁻¹.

Regarding `OC(CNCCNc1nccc(C(F)(F)F)n1)CSc1ccc(F)cc1` (centres undefined), the Activity in the assay with Anguilliformes [1] was determined as 30.2 mmol⁻¹ min⁻¹. Regarding `Cc1cc(C)cc(NC(=O)N2CCCN(c3ncccc3[N+](=O)[O-])CC2)c1`, the Activity in the assay on Anguilliformes [1] is 77.2 mmol⁻¹ min⁻¹. As to `O=[N+]([O-])c1ccc(OCC(O)CNCCNc2nccc(C(F)(F)F)n2)cc1` (centres undefined), in the assay on Anguilliformes [1], the Activity came out at 212 mmol⁻¹ min⁻¹. As for `O=[N+]([O-])c1ccc(N2CCCN(C(=S)Nc3ccc(F)cc3Br)CC2)nc1`, the Activity in the assay with Anguilliformes [1] was determined as 10.7 mmol⁻¹ min⁻¹. The Ratio in the assay on Anguilliformes [2] is less than 10.

As to `OC(CNCCNc1nccc(C(F)(F)F)n1)COc1ccc(OC(F)(F)F)cc1` (centres undefined), the Activity with Anguilliformes [1] was determined as 34.4 mmol⁻¹ min⁻¹. On to `COc1ccc(/C=C(/NC(=O)c2ccccc2)C(=O)N/N=C\c2cc(Br)c(OCc3ccccc3Cl)c(OC)c2)cc1`, for which, in the assay with Anguilliformes [1], the Activity was determined as 673 mmol⁻¹ min⁻¹.

For the molecule `O=C(Nc1ccc(Cl)cc1)N1CCCN(c2ccc(C(F)(F)F)cc2[N+](=O)[O-])CC1`, the Activity in the assay on Anguilliformes [1] was 101 mmol⁻¹ min⁻¹. `OC(CNCCNc1nccc(C(F)(F)F)n1)COc1ccccc1` (centres undefined): the Activity in the assay with Anguilliformes [1] was 26.3 mmol⁻¹ min⁻¹. Same read-out and setting: then `COc1ccc(C2NCCc3c2[nH]c2ccc(OCc4ccccc4)cc32)cc1COc1c(Br)cc(Br)cc1Br` (centres undefined), with 102 mmol⁻¹ min⁻¹.
